Source: patent publication US7056941B1 (priority 1997, dated 2006)

melting point: 107 to 109 °C
Structure (SMILES): Cc1nn(C)c(=O)n1-c1ccccc1COc1ccn(-c2ccc(Cl)cc2)n1
